Measurements published in patent US12310364B2, “Safened compositions comprising pyridine carboxylate herbicides and cloquintocet” (Corteva Agriscience LLC, priority 2018, dated 2025).
Where “and” joins values, the source holds several entries; their conditions need not be identical. Equal values may be shown once.

What was measured:
Format in all cases: in vivo
[1] = test system: Sinapis arvensis (wild mustard), SINAR; assay: Greenhouse postemergence trial, visual injury on wild mustard
Text: (§1) Greenhouse Trial Methodology—Evaluation of Postemergence Herbicidal Safening in Crops
(§2) Seeds of the desired test plant species were planted in a 90:10% v/v (volume/volume) mixture of PRO-MIX® BX (Premier Tech Horticulture, Quakertown, PA, USA) and PROFILE® GREENS GRADE™ (Profile Products LLC, Buffalo Grove, IL, USA) planting mixture, which typically has a pH of 5.2 to 6.2 and an organic matter content of at least 50 percent, in plastic pots with a surface area of 103.2 square centimeters (cm^2). When required to ensure good germination and healthy plants, a fungicide treatment and/or other chemical or physical treatment was applied. The plants were grown for 7-36 days (d) in a greenhouse with an approximate 14-hour (h) photoperiod which was maintained at about 23° C. during the day and 22° C. during the night. Nutrients and water were added on a regular basis and supplemental lighting was provided with overhead metal halide 1000-Watt lamps as necessary. The plants were employed for testing when they reached the second or third true leaf stage.
(§3) Emulsifiable concentrates of each of each pyridine carboxylate herbicide (Compound A or Compound B) were prepared at 100 grams acid equivalent per liter (g ae/L). An aliquot of each emulsifiable concentrate was placed in a 25 mL glass vial and diluted with an aqueous mixture of 1.25% (v/v) ACTIROB® B esterified rapeseed oil (Bayer Crop Science, Research Triangle Park, NC, USA) or MSO® Concentrate with LECI-TECH® methylated soybean oil (Loveland Products, Loveland, CO, USA) to obtain concentrated stock solutions at the highest application rate for each herbicide, based upon a 12 milliliter (mL) application volume at a rate of 187 liters per hectare (L/ha). The concentrated stock solutions were further diluted with an aqueous mixture of 1.25% v/v ACTIROB® B or MSO® Concentrate with LECI-TECH® to obtain stock solutions at reduced application rates for each herbicide. Spray solutions of the herbicide combinations (Compound A or Compound B plus safener) were prepared by adding weighed amounts or aliquots of the safener to the stock solutions of Compound A or Compound B to form 12-mL spray solutions in two-way combinations.
(§4) The spray solutions were applied to the plant material with an overhead Mandel track sprayer equipped with 8002E nozzles calibrated to deliver 187 L/ha over an application area of 0.503 square meters (m^2) at a spray height of 18 inches (43 centimeters (cm)) above the average plant canopy. Control plants were sprayed in the same manner with the solvent blank. All herbicide (component a) application rates are given as “g ae/ha” and all safener (component b) application rates are given as “g ai/ha.”
(§5) The treated plants and control plants were placed in a greenhouse as described above and watered by sub-irrigation to prevent wash-off of the test compounds. After 20-22 d, the condition of the test plants as compared with that of the control plants was determined visually and scored on a scale of 0 to 100 percent where 0 corresponds to no injury and 100 corresponds to complete kill.

[2] = test system: large crabgrass (DIGSA, Digitaria sanguinalis); assay: Greenhouse postemergence trial, visual injury on large crabgrass; conditions: Table 19
Text: as §1, §2
as §3, with “combinations. […]” for “combinations.”
as §5

[3] = test system: Johnson grass (SORHA, Sorghum halepense); assay: Greenhouse postemergence trial, visual injury on Johnson grass; conditions: Table 19
Text: as §1, §2
as §3, with “combinations. […]” for “combinations.”
as §5

[4] = test system: Triticum aestivum (spring wheat), TRZAS; assay: Greenhouse postemergence safening trial, visual injury on spring wheat
Method: (§6) Greenhouse Trial Methodology-Evaluation of Postemergence Herbicidal […] in Crops […] When required to ensure good germination and healthy plants, a fungicide treatment and/or other chemical or physical treatment was applied. The plants were grown for 7-36 days (d) in a greenhouse with an approximate 14-hour (h) photoperiod which was maintained at about 23° C. during the day and 22° C. during the night. Nutrients and water were added on a regular basis and supplemental lighting was provided with overhead metal halide 1000-Watt lamps as necessary. The plants were employed for testing when they reached the second or third true leaf stage. Emulsifiable concentrates of each of each pyridine carboxylate herbicide (Compound A or Compound B) were prepared at 100 grams acid equivalent per liter (g ae/L). […] The concentrated stock solutions were further diluted with an aqueous mixture of 1.25% […] or MSO® Concentrate with LECI-TECH® to obtain stock solutions at reduced application rates for each herbicide. Spray solutions of the herbicide combinations (Compound A or Compound B plus safener) were prepared by adding weighed amounts or aliquots of the safener to the stock solutions of Compound A or Compound B to form 12-mL spray solutions in two-way combinations. […] Control plants were sprayed in the same manner with the solvent blank. All herbicide (component a) application rates are given as “g ae/ha” and all safener (component b) application rates are given as “g ai/ha.” The treated plants and control plants were placed in a greenhouse as described above and watered by sub-irrigation to prevent wash-off of the test compounds.

[5] = test system: Hordeum vulgare (spring barley), HORVS; assay: Greenhouse postemergence safening trial, visual injury on spring barley
Method: as §6

[6] = test system: Salsola kali (Russian thistle), SASKR; assay: Greenhouse postemergence trial, visual injury on Russian thistle
Method: as §6

[7] = test system: soybean (GLXMA, Glycine max); assay: Greenhouse postemergence trial, visual injury on soybean; conditions: Table 19
Text: as §1, §2
as §3, with “combinations. […]” for “combinations.”
as §5

[8] = test system: wild oat (AVEFA, Avena fatua); assay: Greenhouse postemergence trial, visual injury on wild oat; conditions: Table 19
Text: as §1, §2
as §3, with “combinations. […]” for “combinations.”
as §5

[9] = test system: common sunflower (HELAN, Helianthus annuus); assay: Greenhouse postemergence trial, visual injury on common sunflower
Text: as §1, §2, §3, §4, §5

[10] = test system: wild pansy (VIOTR, Viola tricolor); assay: Greenhouse postemergence trial, visual injury on wild pansy; conditions: Table 19
Text: as §1, §2
as §3, with “combinations. […]” for “combinations.”
as §5

[11] = test system: Canada horseweed (ERICA, Erigeron canadensis); assay: Greenhouse postemergence trial, visual injury on Canada horseweed; conditions: Table 19
Text: as §1, §2
as §3, with “combinations. […]” for “combinations.”
as §5

[12] = CQC-mexyl 10 g/ha alone, Table 16
[13] = CQC-mexyl 20 g/ha alone, Table 16
[14] = CQC-mexyl 40 g/ha alone, Table 16
[15] = CQC-mexyl 80 g/ha alone, Table 16
[16] = CQC-mexyl 5 g/ha alone, Table 15
[17] = CQC-mexyl 10 g/ha alone, Table 15
[18] = CQC-mexyl 20 g/ha alone, Table 15
[19] = CQC-mexyl 40 g/ha alone, Table 14
[20] = CQC-mexyl 40 g/ha alone, Table 15
[21] = Compound A 40 g/ha alone, Table 16
[22] = Compound A 20 g/ha alone, Table 15
[23] = Compound A 40 g/ha alone, Table 14

In the case of `CCCCCC(C)OC(=O)COc1ccc(Cl)c2cccnc12` (centres unmarked) [CQC-mexyl, cloquintocet-mexyl], the “% visual injury, Ob” value [1, 12] is reported as 0%, the “% visual injury, Ob” value [1, 13] is reported as 0% and the “% visual injury, Ob” value [1, 14] is reported as 0%. The “% visual injury, Ob” value [1, 15] was 0%, the “% visual injury, Ob” value ([1]; safener alone 5 g/ha) was 0% and the “% visual injury, Ob” value ([1]; safener alone 10 g/ha) was 0%. For the same compound, the “% visual injury, Ob” value ([1]; safener alone 20 g/ha) was 0%, the “% visual injury, Ob” value ([1]; safener alone 40 g/ha) was 0% and the “% visual injury, Ob” value ([2]; CQC-mexyl 20 g/ha alone) was 0%. The “% visual injury, Ob” value ([2]; CQC-mexyl 40 g/ha alone) was 0%, the “% visual injury, Ob” value ([2]; CQC-mexyl 80 g/ha alone) was 0% and the “% visual injury, Ob” value ([3]; CQC-mexyl 20 g/ha alone) was 0%. The “% visual injury, Ob” value ([3]; CQC-mexyl 40 g/ha alone) was 0%, the “% visual injury, Ob” value ([3]; CQC-mexyl 80 g/ha alone) was 0% and the “% visual injury, Ob” value [4, 16] was 0%. The “% visual injury, Ob” value [4, 17] was 0%, the “% visual injury, Ob” value [4, 12] was 0% and the “% visual injury, Ob” value [4, 18] was 0%. For the same compound, the “% visual injury, Ob” value [4, 13] was 0%, the “% visual injury, Ob” value [4, 19] was 0% and the “% visual injury, Ob” value [4, 20] was 0%. For the same compound, the “% visual injury, Ob” value [4, 14] was 0%, the “% visual injury, Ob” value [4, 15] was 0% and the “% visual injury, Ob” value ([4]; safener alone 5 g/ha) was 0%. For the same compound, the “% visual injury, Ob” value ([4]; safener alone 10 g/ha) was 0%, the “% visual injury, Ob” value ([4]; safener alone 20 g/ha) was 0% and the “% visual injury, Ob” value ([4]; safener alone 40 g/ha) was 0%. The “% visual injury, Ob” value [5, 16] was 0%, the “% visual injury, Ob” value [5, 17] was 0% and the “% visual injury, Ob” value [5, 12] was 0%. For the same compound, the “% visual injury, Ob” value [5, 18] was 0%, the “% visual injury, Ob” value [5, 13] was 0% and the “% visual injury, Ob” value [5, 19] was 0%. For the same compound, the “% visual injury, Ob” value [5, 20] was 0%, the “% visual injury, Ob” value [5, 14] was 0% and the “% visual injury, Ob” value [5, 15] was 0%. The “% visual injury, Ob” value ([5]; safener alone 5 g/ha) was 0%, the “% visual injury, Ob” value ([5]; safener alone 10 g/ha) was 0% and the “% visual injury, Ob” value ([5]; safener alone 20 g/ha) was 0%. The “% visual injury, Ob” value ([5]; safener alone 40 g/ha) was 0%, the “% visual injury, Ob” value ([6]; safener alone 5 g/ha) was 0% and the “% visual injury, Ob” value ([6]; safener alone 10 g/ha) was 0%. For the same compound, the “% visual injury, Ob” value ([6]; safener alone 20 g/ha) was 0%, the “% visual injury, Ob” value ([6]; safener alone 40 g/ha) was 0% and the “% visual injury, Ob” value ([7]; CQC-mexyl 20 g/ha alone) was 0%. For the same compound, the “% visual injury, Ob” value ([7]; CQC-mexyl 40 g/ha alone) was 0%, the “% visual injury, Ob” value ([7]; CQC-mexyl 80 g/ha alone) was 0% and the “% visual injury, Ob” value ([8]; CQC-mexyl 20 g/ha alone) was 0%. For the same compound, the “% visual injury, Ob” value ([8]; CQC-mexyl 40 g/ha alone) was 0%, the “% visual injury, Ob” value ([8]; CQC-mexyl 80 g/ha alone) was 0% and the “% visual injury, Ob” value ([9]; CQC-mexyl 20 g/ha alone, Table 17) was 0%. For the same compound, the “% visual injury, Ob” value ([9]; CQC-mexyl 20 g/ha alone, Table 19) was 0%, the “% visual injury, Ob” value ([9]; CQC-mexyl 40 g/ha alone, Table 17) was 0% and the “% visual injury, Ob” value ([9]; CQC-mexyl 40 g/ha alone, Table 19) was 0%. The “% visual injury, Ob” value ([9]; CQC-mexyl 80 g/ha alone, Table 17) was 0%, the “% visual injury, Ob” value ([9]; CQC-mexyl 80 g/ha alone, Table 19) was 0% and the “% visual injury, Ob” value ([9]; CQC-mexyl 120 g/ha alone, Table 17) was 0%. For the same compound, the “% visual injury, Ob” value ([10]; CQC-mexyl 20 g/ha alone) was 0%, the “% visual injury, Ob” value ([10]; CQC-mexyl 40 g/ha alone) was 0% and the “% visual injury, Ob” value ([10]; CQC-mexyl 80 g/ha alone) was 0%. The “% visual injury, Ob” value ([11]; CQC-mexyl 20 g/ha alone) was 0%, the “% visual injury, Ob” value ([11]; CQC-mexyl 40 g/ha alone) was 0% and the “% visual injury, Ob” value ([11]; CQC-mexyl 80 g/ha alone) was 0%.
With `N#CCOC(=O)c1nc(-c2ccc3cc[nH]c3c2F)c(F)c(N)c1Cl` [Compound A, cyanomethyl 4-amino-3-chloro-5-fluoro-6-(7-fluoro-1H-indol-6-yl)pyridine-2-carboxylate] the “% visual injury, Ob” value [1, 21] was 99%, the “% visual injury, Ob” value ([1]; herbicide alone 40 g/ha) was 99% and the “% visual injury, Ob” value ([2]; Compound A 20 g/ha alone) was 30%. The “% visual injury, Ob” value ([3]; Compound A 20 g/ha alone) was 0%, the “% visual injury, Ob” value [4, 22] was 15% and the “% visual injury, Ob” value [4, 23] was 45%. For the same compound, the “% visual injury, Ob” value [4, 21] was 40%, the “% visual injury, Ob” value ([4]; herbicide alone 20 g/ha) was 15% and 25% and the “% visual injury, Ob” value ([4]; herbicide alone 40 g/ha) was 45% and 40% and 23%. The “% visual injury, Ob” value [5, 22] was 20%, the “% visual injury, Ob” value [5, 23] was 20% and the “% visual injury, Ob” value [5, 21] was 40%. For the same compound, the “% visual injury, Ob” value ([6]; herbicide alone 20 g/ha) was 60%, the “% visual injury, Ob” value ([7]; Compound A 20 g/ha alone) was 100% and the “% visual injury, Ob” value ([8]; Compound A 20 g/ha alone) was 0%. For the same compound, the “% visual injury, Ob” value ([9]; Compound A 20 g/ha alone, Table 19) was 95%, the “% visual injury, Ob” value ([9]; Compound A 40 g/ha alone, Table 17) was 100% and the “% visual injury, Ob” value ([9]; Compound A 40 g/ha alone, Table 18) was 100%. For the same compound, the “% visual injury, Ob” value ([10]; Compound A 20 g/ha alone) was 30% and the “% visual injury, Ob” value ([11]; Compound A 20 g/ha alone) was 95%.
